How the values were obtained:
[1] = tested on: Grb10 protein in TSC2−/− cells; assay: Immunoblot of Grb10 protein level after long-term treatment; assay type: cell-based, mouse; conditions: TSC2−/− MEFs stably expressing HA-tagged Grb10-DD, long-term 20 nM rapamycin
From the text: (§1) FIG. 3. mTOR-mediated Grb10 phosphorylation is important for Grb10 stability. (A) Grb10 interacts with raptor, but not rictor. HA-tagged Grb10 was co-transfected with Myc-raptor or Myc-rictor in HEK293T cells. Cells were lysed in lysis buffer A, and the lysates were subjected to immunoprecipitation using anti-HA antibody conjugated beads. Raptor and rictor were probed with an antibody against the Myc-tag. (B) Grb10 is phosphorylated by mTOR in vitro. […] Phosphorylation of Grb10 at S501/S503 was detected by using the phospho-specific antibody against these two sites. (C) Long-term rapamycin treatment leads to Grb10 degradation in TSC2−/− cells. Note that Grb10 protein expression levels inversely correlated with Akt activity. Grb10 is highly overexpressed in TSC2−/− cells. mRNA level was determined using quantitative RT-PCR based on three biological replicate experiments. (D) Knockdown of raptor in TSC2−/− cells decreased Grb10 protein level. Cells were starved overnight and the lysates were probed with the antibodies indicated. (E) Grb10 is highly overexpressed in TSC2−/− cells. (F) S501A/S503A mutant is unstable compared with the wild-type or the S501D/S503D mutant. The same amount of DNA was transfected into HEK293T cells. […] Endogenous Grb10 was detected using an antibody that preferentially recognizes mouse Grb10 whereas the Grb10 DD mutant (of human origin) was detected using an anti-HA antibody.
FIG. 9. Phosphorylation of Grb10 at S501/S503 regulates its stability. […] Preincubation of the antibody with the […] completely eliminated the immunoreactivity. (B) Further validation of the phospho-specific antibody raised against the Grb10 S501/S503 sites. Grb10 WT, S501A/S503A (AA) and S501D/S503D (DD) were transfected into HEK239T cells and were probed with the antibody. Note that this antibody detected wild type (WT) Grb10, but neither of the mutant proteins. (C) Treatment of TSC2−/− cells with various mTOR kinase inhibitors led to Grb10 degradation. […] (E) Grb10 is highly overexpressed in TSC1−/− cells compared with their wild-type counterparts. (F) rapamycin treatment of TSC2−/− cells stably expressing wild type (WT) Grb10 led to lower levels of both endogenous and exogenous Grb10.
In addition, long-term treatment with mTOR kinase inhibitors, including LY-294002, NVP-BEZ235, torin and pp 242 all led to reduced Grb10 protein expression (FIG. 9C). Similar results were obtained in TSC1−/− MEFs (FIG. 9D). In contrast, we found Grb10 was highly overexpressed in TSC2−/− and TSC1−/− MEFs compared with their wild-type counterparts (FIGS. 3E and 9E), correlating with elevated mTORC1 activity in these cells. […]

[2] = tested on: Grb10 mRNA in TSC2−/− cells; assay: Quantitative RT-PCR of Grb10 mRNA; assay type: cell-based, mouse; conditions: three biological replicates
From the text: as §1, with “Note that Grb10 protein expression levels inversely correlated with Akt activity.” left out, “experiments.” for “experiments. (D) Knockdown of raptor in TSC2−/− cells decreased Grb10 protein level. Cells were starved overnight and the lysates were probed with the antibodies indicated. (E) Grb10 is highly overexpressed in TSC2−/− cells. (F) S501A/S503A mutant is unstable compared with the wild-type or the S501D/S503D mutant. The same amount of DNA was transfected into HEK293T cells.”, “antibody. […]” for “antibody.”
Total cellular RNA was purified from cultured cells using the RNeasy mini kit (Qiagen) following the manufacturer's protocol. For quantitative real-time PCR (qRT-PCR), RNA was reverse-transcribed using the High-Capacity cDNA Reverse Transcription Kit (Applied Biosystems) according to the manufacturer's instructions. The resulting cDNA was analyzed by qRT-PCR using the QuantiTect SYBR Green qPCR System (Qiagen). […]

For CO[C@H]1C[C@@H]2CC[C@@H](C)[C@@](O)(O2)C(=O)C(=O)N2CCCC[C@H]2C(=O)O[C@H]([C@H](C)C[C@@H]2CC[C@@H](O)[C@H](OC)C2)CC(=O)[C@H](C)/C=C(\C)[C@@H](O)[C@@H](OC)C(=O)[C@H](C)C[C@H](C)/C=C/C=C/C=C/1C [rapamycin], the “Grb10 S501D/S503D (DD) mutant protein levels” value [1] was “no effect” and the “decrease in Grb10 mRNA levels after long-term rapamycin” value [2] was “approximately 2 fold”.
